In ChEMBL document CHEMBL1201862, “PubChem BioAssay data set” (2004):
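Where inhibition never reached the appropriate level, the endpoint shown equals the highest concentration tested. Otherwise, values were interpolated linearly from a five-concentration, 48-hour dose response in 96-well plates. At the GI50, growth is halved.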 The source made the active and inactive calls. Cut-off read from the data, not from the text of the source: active = GI50 up to about 1.1 µM and inactive = higher.

Columns and labels:
Test in all cases: NCI tumour cell line growth inhibition, 48 h
SF-295 = system: SF-295
M19-MEL = system: M19-MEL
SK-OV-3 = system: SK-OV-3
Malme-3M = system: Malme-3M
KM-20L2 = system: KM-20L2
NCI-H460 = system: NCI-H460
HCC 2998 = system: HCC 2998
SW-620 = system: SW-620
LXFL 529 = system: LXFL 529
HL-60 = system: HL-60
HT-29 = system: HT-29
COLO 205 = system: COLO 205
UACC-257 = system: UACC-257
HOP-92 = system: HOP-92
OVCAR-5 = system: OVCAR-5
NCI-H522 = system: NCI-H522
K562 = system: K562
IGROV-1 = system: IGROV-1
SK-MEL-5 = system: SK-MEL-5
HOP-62 = system: HOP-62
RXF 393 = system: RXF 393
UACC-62 = system: UACC-62
SF-539 = system: SF-539
KM12 = system: KM12
OVCAR-8 = system: OVCAR-8
TK-10 = system: TK-10
SNB-19 = system: SNB-19
SNB-75 = system: SNB-75
A549 = system: A549
CCRF-CEM = system: CCRF-CEM
NCI-H23 = system: NCI-H23
A498 = system: A498
HCT-15 = system: HCT-15
SF-268 = system: SF-268
ACHN = system: ACHN
MOLT-4 = system: MOLT-4
HCT-116 = system: HCT-116
U-251 = system: U-251
DLD-1 = system: DLD-1
LOX IMVI = system: LOX IMVI
OVCAR-4 = system: OVCAR-4
SN12C = system: SN12C
NCI-H226 = system: NCI-H226
OVCAR-3 = system: OVCAR-3
SK-MEL-28 = system: SK-MEL-28
EKVX = system: EKVX
DMS-273 = system: DMS-273
SK-MEL-2 = system: SK-MEL-2
XF498 = system: XF498
SNB-78 = system: SNB-78
M14 = system: M14
SR = system: SR

SMILES: Nc1nc(SCCC/C=C/B(O)O)nc2c1ncn2C1OC(CO)C(O)C1O (configuration not stated)
- GI50 (SF-295): > 243 µM (inactive)
- GI50 (M19-MEL): > 243 µM (inactive)
- GI50 (SK-OV-3): > 243 µM (inactive)
- GI50 (Malme-3M): > 243 µM (inactive)
- GI50 (KM-20L2): > 243 µM (inactive)
- GI50 (NCI-H460): > 243 µM (inactive)
- GI50 (HCC 2998): > 243 µM (inactive)
- GI50 (SW-620): > 243 µM (inactive)
- GI50 (LXFL 529): > 243 µM (inactive)
- GI50 (HL-60): > 243 µM (inactive)
- GI50 (HT-29): > 243 µM (inactive)
- GI50 (COLO 205): > 243 µM (inactive)
- GI50 (UACC-257): > 243 µM (inactive)
- GI50 (HOP-92): > 243 µM (inactive)
- GI50 (OVCAR-5): > 243 µM (inactive)
- GI50 (NCI-H522): > 243 µM (inactive)
- GI50 (K562): > 243 µM (inactive)
- GI50 (IGROV-1): > 243 µM (inactive)
- GI50 (SK-MEL-5): > 243 µM (inactive)
- GI50 (HOP-62): > 243 µM (inactive)
- GI50 (RXF 393): > 243 µM (inactive)
- GI50 (UACC-62): > 243 µM (inactive)
- GI50 (SF-539): > 243 µM (inactive)
- GI50 (KM12): > 243 µM (inactive)
- GI50 (OVCAR-8): > 243 µM (inactive)
- GI50 (TK-10): > 243 µM (inactive)
- GI50 (SNB-19): > 243 µM (inactive)
- GI50 (SNB-75): > 243 µM (inactive)
- GI50 (A549): > 243 µM (inactive)
- GI50 (CCRF-CEM): > 243 µM (inactive)
- GI50 (NCI-H23): > 243 µM (inactive)
- GI50 (A498): > 243 µM (inactive)
- GI50 (HCT-15): > 243 µM
- GI50 (SF-268): > 243 µM (inactive)
- GI50 (ACHN): > 243 µM (inactive)
- GI50 (MOLT-4): > 243 µM (inactive)
- GI50 (HCT-116): > 243 µM (inactive)
- GI50 (U-251): > 243 µM (inactive)
- GI50 (DLD-1): > 243 µM (inactive)
- GI50 (LOX IMVI): > 243 µM (inactive)
- GI50 (OVCAR-4): > 243 µM (inactive)
- GI50 (SN12C): > 243 µM (inactive)
- GI50 (NCI-H226): > 243 µM (inactive)
- GI50 (OVCAR-3): > 243 µM (inactive)
- GI50 (SK-MEL-28): > 243 µM (inactive)
- GI50 (EKVX): > 243 µM (inactive)
- GI50 (DMS-273): > 243 µM (inactive)
- GI50 (SK-MEL-2): > 243 µM (inactive)
- GI50 (XF498): > 243 µM (inactive)
- GI50 (SNB-78): > 243 µM (inactive)
- GI50 (M14): > 243 µM (inactive)
- GI50 (SR): > 243 µM (inactive)
